# Experimental data published in PubChem BioAssay AID2202555 (NIEHS Division of Translational Toxicology (DTT)).
# Results filed as inconclusive are left out. The source made the active and inactive calls. The rule behind the calls is not given here.
# Tested on: rat and mouse 2-year carcinogenicity bioassay, tumor evidence
# Assay: Consolidated carcinogenicity assay summary data
# Settings: Route (rodents): Dosed feed
# Source text: Cancer Evaluation Criteria
# The National Toxicology Program describes the results of individual experiments on a chemical agent and notes the strength of the evidence for conclusions regarding each study. […] Other organizations, such as the International Agency for Research on Cancer, assign a strength of evidence for conclusions based on an examination of all available evidence, including animal studies such as those conducted by the NTP, epidemiologic studies, and estimates of exposure. Thus, the actual determination of risk to humans from chemicals found to be carcinogenic in laboratory animals requires a wider analysis that extends beyond the purview of these studies.
# Five categories of evidence of carcinogenic activity are used in the Technical Report series to summarize the strength of evidence observed in each experiment: two categories for positive results (clear evidence and some evidence); one category for uncertain findings (equivocal evidence); one category for no observable effects (no evidence); and one category for experiments that cannot be evaluated because of major flaws (inadequate study). These categories of interpretative conclusions were first adopted in June 1983 and then revised on March 1986 for use in the Technical Report series to incorporate more specifically the concept of actual weight of evidence of carcinogenic activity. For each separate experiment (male rats, female rats, male mice, female mice), one of the following five categories is selected to describe the findings. These categories refer to the strength of the experimental evidence and not to potency or mechanism.
# For studies showing multiple chemical-related neoplastic effects that if considered individually would be assigned to different levels of evidence categories, the following convention has been adopted to convey completely the study results. In a study with clear evidence of carcinogenic activity at some tissue sites, other responses that alone might be deemed some evidence are indicated as "were also related" to chemical exposure. In studies with clear or some evidence of carcinogenic activity, other responses that alone might be termed equivocal evidence are indicated as "may have been" related to chemical exposure.
# When a conclusion statement for a particular experiment is selected, consideration must be given to key factors that would extend the actual boundary of an individual category of evidence. Such consideration should allow for incorporation of scientific experience and current understanding of long-term carcinogenesis studies in laboratory animals, especially for those evaluations that may be on the borderline between two adjacent levels. These considerations should include:
# - adequacy of the experimental design and conduct;
# - occurrence of common versus uncommon neoplasia;
# - progression (or lack thereof) from benign to malignant neoplasia as well as from preneoplastic to neoplastic lesions;
# - some benign neoplasms have the capacity to regress but others (of the same morphologic type) progress. At present, it is impossible to identify the difference. Therefore, where progression is known to be a possibility, the most prudent course is to assume that benign neoplasms of those types have the potential to become malignant;
# - combining benign and malignant tumor incidences known or thought to represent stages of progression in the same organ or tissue;
# - latency in tumor induction;
# - multiplicity in site -specific neoplasia;
# - supporting information from proliferative lesions (hyperplasia) in the same site of neoplasia or in other experiments (same lesion in another sex or species);
# - presence or absence of dose relationships;
# - statistical significance of the observed tumor increase;
# - concurrent control tumor incidence as well as the historical control rate and variability for a specific neoplasm;
# - survival-adjusted analyses and false positive or false negative concerns;
# - structure-activity correlations; and
# […]
row,SMILES,carcinogen call
1,CCCCCCCCS(=O)C(C)Cc1ccc2c(c1)OCO2 (stereo unspecified),active; no evidence
2,CCNC(=S)NCC,active; clear evidence
3,ClC1=C(Cl)C2(Cl)C3C(Cl)C(Cl)CC3C1(Cl)C2(Cl)Cl (stereo unspecified),active; no evidence
4,ClC1=C(Cl)[C@]2(Cl)[C@H]3[C@H]([C@@H]4C=C[C@H]3C4)[C@@]1(Cl)C2(Cl)Cl,active; equivocal evidence
5,O=C(c1ccccc1)c1ccccc1,active; some evidence
6,Cc1ccccc1[N+](=O)[O-],active; clear evidence
7,Cc1ccc(N)cc1N,active; clear evidence
8,Nc1ccccc1-c1ccccc1,active; no evidence
9,CC(=O)Nc1ccc(N=Nc2cc(C)ccc2O)cc1,active; clear evidence
10,Nc1cccc2c(N)cccc12,active; no evidence
11,c1ccc(N=Nc2ccccc2)cc1,active; clear evidence
12,Nc1ccccc1C(=O)OCC=Cc1ccccc1,active; clear evidence
13,O=P(OCC(Br)CBr)(OCC(Br)CBr)OCC(Br)CBr (stereo unspecified),active; clear evidence
14,Nc1nc(N)c2nc(-c3ccccc3)c(N)nc2n1,active; equivocal evidence
15,O=C1CN(N=Cc2ccc([N+](=O)[O-])o2)C(=O)N1,active; some evidence
16,CCC1(c2ccccc2)C(=O)NCNC1=O,active; equivocal evidence
17,O=C(O)C(F)(F)C(F)(F)C(F)(F)C(F)(F)C(F)(F)C(F)(F)C(F)(F)F,active; clear evidence
18,C[C@H]1CCCC(=O)CCC/C=C/c2cc(O)cc(O)c2C(=O)O1,active; no evidence
19,N=C1C=CC(=C(c2ccc(N)cc2)c2ccc(N)cc2)C=C1,active; clear evidence

row,SMILES,carcinogen call
1,Nc1cc(S(=O)(=O)[O-])cc2cc(S(=O)(=O)[O-])c(N=Nc3ccc(-c4ccc(N=Nc5c(S(=O)(=O)[O-])cc6cc(S(=O)(=O)[O-])cc(N)c6c5[O-])c([O-])c4)cc3[O-])c([O-])c12.[Cu+2].[Cu+2].[Na+].[Na+].[Na+].[Na+],active; some evidence
2,Nc1ccc(S(=O)(=O)c2ccc(N)cc2)cc1,active; clear evidence
3,Nc1ccc(Oc2ccc(N)cc2)cc1,active; clear evidence
4,O=C1NC(=O)C(c2ccccc2)(c2ccccc2)N1,active; equivocal evidence
5,O=[N+]([O-])c1ccc2nc[nH]c2c1,active; no evidence
6,Cc1cccc(C)c1N,active; clear evidence
7,COc1ccc(C)cc1N,active; clear evidence
8,S=C1NCCN1,active; clear evidence
9,Cc1ccc2c(c1[N+](=O)[O-])C(=O)c1ccccc1C2=O,active; clear evidence
10,Cc1cc(C)c(N)cc1C,active; clear evidence
11,CN(C)c1ccc(C(c2ccccc2)c2ccc(N(C)C)cc2)cc1,active; equivocal evidence
12,Cc1ccc([N+](=O)[O-])cc1,active; equivocal evidence
13,Cc1ccccc1N,active; clear evidence
14,COc1ccccc1[N+](=O)[O-],active; clear evidence
15,ClC(Cl)=C(c1ccc(Cl)cc1)c1ccc(Cl)cc1,active; no evidence
16,N#Cc1c(Cl)c(Cl)c(Cl)c(C#N)c1Cl,active; clear evidence
17,COC(=O)[C@H]1[C@H]2C[C@@H]3c4[nH]c5cc(OC)ccc5c4CCN3C[C@H]2C[C@@H](OC(=O)c2cc(OC)c(OC)c(OC)c2)[C@@H]1OC,active; clear evidence
18,CCn1c2ccccc2c2cc(N)ccc21,active; clear evidence

# Same assay, conditions: Route (rodents): Dosed water
row,SMILES,carcinogen call
1,Cc1cc(-c2ccc(N)c(C)c2)ccc1N,active; clear evidence
2,CC(C)(C)O,active; some evidence
3,O=C(O)C(Cl)Br (stereo unspecified),active; clear evidence
4,C1COCCO1,active; clear evidence
5,N#CC(Br)Br,active; clear evidence
6,Cc1ccc(S(=O)(=O)Oc2ccc(N=Nc3ccc(-c4ccc(N=Nc5c(O)ccc6cc(S(=O)(=O)O)cc(S(=O)(=O)O)c56)c(C)c4)cc3C)cc2)cc1,active; clear evidence
7,O=C(O)C(Cl)(Cl)Br,active; clear evidence
8,c1ccncc1,active; some evidence

# Same assay, conditions: Route (rodents): Gavage
row,SMILES,carcinogen call
1,ClCC(Cl)Cl,active; no evidence
2,Clc1cc2oc3c(Cl)c(Cl)c(Cl)cc3c2cc1Cl,active
3,C[C@]12CC[C@@H]3c4ccc(OC(=O)Cc5ccc(N(CCCl)CCCl)cc5)cc4CC[C@H]3[C@@H]1CC[C@@H]2OC(=O)Cc1ccc(N(CCCl)CCCl)cc1,active; no evidence
4,Clc1ccc(Cl)cc1,active; clear evidence
5,[Cl-].[Cl-].[Hg+2],active; some evidence
6,C[C@]12C/C(=C/O)C(=O)C[C@@H]1CC[C@@H]1[C@@H]2CC[C@@]2(C)[C@H]1CC[C@]2(C)O,active; equivocal evidence
7,O=Cc1ccc(CO)o1,active; no evidence
8,C=CC1CC=CCC1 (stereo unspecified),active; inadequate study
9,CC1C(=O)C[C@]2(C(C)C)C[C@H]12 (stereo partly specified),active; some evidence
10,O=C/C=C/O,active; clear evidence
11,Clc1ccc(-c2cc(Cl)c(Cl)cc2Cl)cc1Cl,active
12,c1cc(OCC2CO2)cc(OCC2CO2)c1 (stereo unspecified),active; clear evidence
13,OC(O)C(Cl)(Cl)Cl,active
14,Nc1cc([N+](=O)[O-])ccc1O,active; some evidence
15,Nc1ccc(O)c(N)c1,active; no evidence
16,CCCN(CCC)S(=O)(=O)c1ccc(C(=O)O)cc1,active; no evidence
17,Oc1ccc(O)cc1,active; some evidence
18,CC(Cl)CCl (stereo unspecified),active; no evidence
19,ClC=CCCl,active; clear evidence
20,O=P(OCCCl)(OCCCl)OCCCl,active; clear evidence
21,ClC(Br)Br,active; no evidence
22,COc1c(Cl)c(Cl)c(Cl)c(Cl)c1Cl,active; some evidence
23,CC(O)c1ccccc1 (stereo unspecified),active; some evidence
24,CN(C)c1ccc2nc3ccc(=[N+](C)C)cc-3sc2c1,active; some evidence
25,ClCCCl,active; clear evidence
26,C=CCOC(=O)CC(C)C,active; clear evidence
27,C=CC#N,active

# Same assay, conditions: Route (rodents): Gavage; Second Route: Dosed Feed
row,SMILES,carcinogen call
1,COP(=O)(OC)OC=C(Cl)Cl,active; some evidence
2,CC(=O)OCc1ccccc1,active; equivocal evidence

# Same assay, conditions: Route (rodents): Gavage; Second Route: Topical
row,SMILES,carcinogen call
1,Clc1cc2c(c(Cl)c1Cl)Oc1cc(Cl)c(Cl)c(Cl)c1O2,active; equivocal evidence

# Same assay, conditions: Route (rodents): Inhalation
row,SMILES,carcinogen call
1,ClC(Cl)=C(Cl)Cl,active; clear evidence
2,C1CCOC1,active; some evidence
3,O.O.O.O.O.O.O.O=S(=O)([O-])[O-].[Co+2],active; some evidence
4,C[N+](=O)[O-],active; no evidence
5,[P]#[In],active; clear evidence
6,C1CCC2CCCCC2C1 (stereo unspecified),active; clear evidence
7,[O]=[Mo](=[O])=[O],active; equivocal evidence
8,[Co],active; clear evidence
9,c1ccc2ccccc2c1,active; clear evidence

# Same assay, conditions: Route (rodents): Inhalation; Second Route: Gavage
row,SMILES,carcinogen call
1,BrCCBr,active; clear evidence
2,ClCC(Br)CBr (stereo unspecified),active; clear evidence

# Same assay, conditions: Route (rodents): Interperitoneal
row,SMILES,carcinogen call
1,COc1ccc(C(=O)/C(Br)=C\C(=O)O)cc1,active; clear evidence
2,Nc1ncn([C@@H]2O[C@H](CO)[C@@H](O)[C@H]2O)c(=O)n1,active; inadequate study
3,CC(COc1ccccc1)N(CCCl)Cc1ccccc1 (stereo unspecified),active; clear evidence
4,CC(CN1CC(=O)NC(=O)C1)N1CC(=O)NC(=O)C1 (stereo unspecified),active; no evidence

# Same assay, conditions: Route (rodents): Topical
row,SMILES,carcinogen call
1,CC1=CC(C)(C)Nc2ccccc21,active; some evidence
